Measurements as given in paper PMC8370248, “Key Metabolic Enzymes Involved in Remdesivir Activation in Human Lung Cells” (Antimicrobial Agents and Chemotherapy, 2021).
Entries after “also recorded” stand apart in the source; their conditions may differ. Where a name gives a salt, the structure may show the parent alone. Blank lines part the entries; values can stand above or below the compound they belong to.

Key:
[1] = molecular target: T1, CES1b (Homo sapiens, UniProt P23141); assay: CES1b-catalyzed hydrolysis of RDV and control (substrate disappearance, LC-MS); assay type: in vitro ADME; details: 1 μM substrate, CES 1.5 mg/ml, pH 7.4, 37°C
T1 construct: purchased Corning Incorporated (Corning, NY); host or cells: baculovirus-infected insect cells (microsomal fraction, Supersomes)
T1 sequence (P23141 18-567): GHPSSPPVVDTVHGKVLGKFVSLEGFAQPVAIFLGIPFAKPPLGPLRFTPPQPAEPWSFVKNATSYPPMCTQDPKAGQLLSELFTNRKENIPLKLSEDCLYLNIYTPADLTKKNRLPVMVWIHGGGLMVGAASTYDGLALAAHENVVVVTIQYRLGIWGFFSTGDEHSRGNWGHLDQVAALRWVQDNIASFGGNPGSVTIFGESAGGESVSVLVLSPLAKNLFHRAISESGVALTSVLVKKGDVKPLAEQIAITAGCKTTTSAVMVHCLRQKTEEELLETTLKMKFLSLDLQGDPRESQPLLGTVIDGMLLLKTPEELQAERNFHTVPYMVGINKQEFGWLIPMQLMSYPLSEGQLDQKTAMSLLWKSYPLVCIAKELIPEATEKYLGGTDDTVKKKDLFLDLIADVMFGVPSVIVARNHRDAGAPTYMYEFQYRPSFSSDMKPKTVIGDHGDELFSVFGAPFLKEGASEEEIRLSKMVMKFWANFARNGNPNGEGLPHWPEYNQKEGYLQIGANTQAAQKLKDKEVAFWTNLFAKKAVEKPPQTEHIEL
Description: (§1) The catalytic activity of carboxylesterase 1b (CES1b), carboxylesterase 1c (CES1c), CES2, and CatA toward RDV hydrolysis was measured using protein-enriched subcellular fraction (CES isozymes) or recombinant proteins (CatA). The reaction rates were determined by monitoring the disappearance of RDV using a liquid chromatography-mass spectrometry (LC-MS) method.
(§2) RDV or positive-control substrates (oseltamivir for CES1 or procaine for CES2) were incubated with individual Supersome preparations (final CES concentration, 1.5 mg/ml) in 0.1 M potassium phosphate buffer (pH 7.4) at 37°C. Substrates were added to a final concentration of 1 μM to initiate the reaction. The final incubation volume was 250 μl. Aliquots were removed after incubation for 0, 10, 30, 60, and 120 min. The reactions were stopped by the addition of the quench solution containing the LC-MS internal standard (IS) (labetalol). Following protein precipitation and centrifugation, 150 μl of supernatant was dried down and reconstituted with 250 μl water. All samples were analyzed by an LC-MS, and the analyte/internal standard peak area ratio (PAR) values were used for quantification. Disappearance of RDV or positive-control compounds was monitored over the incubation time period. Three experiments were conducted with two replicates in each experiment, and data are reported as averages from the three experiments.
(§3) In all studies apart from those with CES1 and CatA with enzyme inhibitors, samples (10-μl aliquots) were injected with a Thermo Scientific autosampler. The LC instrumentation consisted of a Thermo Scientific Dionex UltiMate 3000 RS pump, and the LC column was a Waters Acquity UPLC BEH C18 (1.7 μm particle size, 2.1 by 50 mm). Mobile phases A and B were water 99.9% (vol/vol) containing 0.1% (vol/vol) formic acid, and acetonitrile 99.9% (vol/vol) containing 0.1% (vol/vol) formic acid, respectively, pumped at 0.2 ml/minute. Elution was achieved by a series of linear gradients over 2.33 min followed by reequilibration for 2.57 min. The MS instrument was a Thermo Q Exactive Hybrid Quadrupole-Orbitrap operating in positive or negative ionization mode as appropriate. This was calibrated on a weekly basis, and data were processed with GMSU 8.4.66 software by Gubbs Inc. (Alpharetta, GA). Mass tolerance of 5 ppm was used.

[2] = molecular target: T2, CES1c (Homo sapiens, UniProt P23141); assay: CES1c-catalyzed hydrolysis of RDV and control (substrate disappearance, LC-MS); assay type: in vitro ADME; details: 1 μM substrate, CES 1.5 mg/ml, pH 7.4, 37°C
T2 construct: purchased Corning Incorporated (Corning, NY); host or cells: baculovirus-infected insect cells (microsomal fraction, Supersomes)
T2 sequence (P23141 18-566 isoform P23141-3 limits assumed): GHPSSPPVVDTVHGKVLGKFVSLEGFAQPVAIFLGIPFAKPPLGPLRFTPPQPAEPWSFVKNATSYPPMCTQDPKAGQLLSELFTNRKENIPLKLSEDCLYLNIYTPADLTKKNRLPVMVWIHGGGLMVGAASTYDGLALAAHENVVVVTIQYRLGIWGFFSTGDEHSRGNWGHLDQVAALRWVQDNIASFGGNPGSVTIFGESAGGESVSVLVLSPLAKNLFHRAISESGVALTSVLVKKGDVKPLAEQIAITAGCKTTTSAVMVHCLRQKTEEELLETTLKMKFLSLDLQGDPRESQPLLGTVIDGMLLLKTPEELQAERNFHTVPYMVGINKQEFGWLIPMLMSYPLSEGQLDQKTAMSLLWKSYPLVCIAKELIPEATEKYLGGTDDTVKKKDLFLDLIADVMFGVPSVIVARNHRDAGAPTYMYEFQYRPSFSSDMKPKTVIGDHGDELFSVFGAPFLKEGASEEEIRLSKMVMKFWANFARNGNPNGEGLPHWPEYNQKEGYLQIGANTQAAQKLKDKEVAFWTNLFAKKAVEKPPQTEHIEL
Description: as §1, §2, §3

[3] = molecular target: T3, CES2 (Homo sapiens, UniProt O00748); assay: CES2-catalyzed hydrolysis of RDV and control (substrate disappearance, LC-MS); assay type: in vitro ADME; details: CES 1.5 mg/ml, pH 7.4, 37°C
T3 construct: purchased Corning Incorporated (Corning, NY); host or cells: baculovirus-infected insect cells (microsomal fraction, Supersomes)
T3 sequence (O00748 27-559): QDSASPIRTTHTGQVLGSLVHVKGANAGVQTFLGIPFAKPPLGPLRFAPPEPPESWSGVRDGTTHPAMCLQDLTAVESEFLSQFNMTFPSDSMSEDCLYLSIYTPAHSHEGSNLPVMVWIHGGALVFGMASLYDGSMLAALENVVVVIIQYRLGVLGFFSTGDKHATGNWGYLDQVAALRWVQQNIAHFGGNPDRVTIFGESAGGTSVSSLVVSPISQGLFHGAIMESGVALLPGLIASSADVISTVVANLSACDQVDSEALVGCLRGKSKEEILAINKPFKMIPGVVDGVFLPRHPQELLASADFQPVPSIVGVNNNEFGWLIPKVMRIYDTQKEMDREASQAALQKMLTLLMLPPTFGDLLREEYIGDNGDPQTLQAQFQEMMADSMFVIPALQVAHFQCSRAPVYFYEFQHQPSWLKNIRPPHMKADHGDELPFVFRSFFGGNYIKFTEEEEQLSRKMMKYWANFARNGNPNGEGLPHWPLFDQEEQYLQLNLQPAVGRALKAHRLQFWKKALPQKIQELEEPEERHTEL
Description: as §1, §2, §3

[4] = molecular target: T4, HINT1 (Homo sapiens, UniProt P49773); assay: HINT1-catalyzed hydrolysis of RDV MetX and positive control; assay type: in vitro ADME
T4 construct: purchased Abcam (Cambridge, MA)
T4 sequence (P49773 whole entry): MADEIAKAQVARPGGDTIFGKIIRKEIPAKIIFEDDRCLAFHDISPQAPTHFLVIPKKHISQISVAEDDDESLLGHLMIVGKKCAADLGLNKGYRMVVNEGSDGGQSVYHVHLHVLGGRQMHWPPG

[5] = Chemical hydrolysis of MetX under acidic conditions mimicking lysosomal lumen; assay type: physicochemical
Description: P-N bond cleavage of RDV MetX was evaluated under acidic pH, mimicking intracellular lysosomal conditions.
To test the chemical stability of RDV MetX under acidic conditions (found within the lysosomal lumen) or neutral conditions (e.g., found in the cytosol of cells), 1 μM compound was incubated in a 250-μl reaction mixture consisting of 100 mM sodium acetate (pH 4.5) or 100 mM HEPES (pH 7.5). […] For reactions carried out at pH 4.5, the pH of the reaction aliquots was raised to pH 9 to 10 by addition of 7.5 μl of 0.2 M NaOH prior to addition of the quenching solution. Following protein precipitation and centrifugation, 150 μl of supernatants were dried down and reconstituted with 250 μl water. All samples were analyzed by LC-MS, and PAR values were used for quantification. Disappearance of MetX was monitored over the incubation time period. Three experiments were conducted with two replicates for each experiment, and data are reported as averages from three experiments.

[6] = molecular target: T5, CatA (Homo sapiens, UniProt P10619); assay: CatA-catalyzed hydrolysis of RDV and control (substrate disappearance, LC-MS)
T5 sequence (P10619 29-326 limits assumed): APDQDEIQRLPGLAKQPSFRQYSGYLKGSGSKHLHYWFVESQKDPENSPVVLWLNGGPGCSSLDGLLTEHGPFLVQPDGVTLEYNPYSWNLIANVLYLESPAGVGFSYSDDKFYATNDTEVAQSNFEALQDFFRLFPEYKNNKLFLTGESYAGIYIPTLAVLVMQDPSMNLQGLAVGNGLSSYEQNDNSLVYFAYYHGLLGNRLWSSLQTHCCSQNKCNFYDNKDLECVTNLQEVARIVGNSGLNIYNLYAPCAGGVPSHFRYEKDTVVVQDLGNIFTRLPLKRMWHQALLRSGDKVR
T5 sequence (P10619 327-480 limits assumed): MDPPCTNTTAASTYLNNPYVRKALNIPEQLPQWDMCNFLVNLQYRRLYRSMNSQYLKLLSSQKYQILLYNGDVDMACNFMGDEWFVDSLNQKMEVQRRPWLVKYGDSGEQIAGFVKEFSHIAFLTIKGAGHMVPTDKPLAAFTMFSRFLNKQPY
Description: as §1
Following protein precipitation and centrifugation, 150 μl of supernatant was dried down and reconstituted with 250 μl water. […] Three experiments were conducted with two replicates in each experiment, and data are reported as averages from the three experiments.
as §3

[7] = 1 μM compound, 100 mM sodium acetate pH 4.5

Activity for amidate ester cleavage, CES1b [1]: 2.3 ± 0.1 × 10^−2 nmol/min/mg | half-life at 1 μM ([1]; human, CES1b Supersomes (protein-enriched subcellular fraction), read-out: t1/2, CES1b (converted)): 20 min | Activity for amidate ester cleavage, CES1c [2]: 1.5 ± 0.2 × 10^−2 nmol/min/mg | half-life at 1 μM ([2]; human, CES1c Supersomes (protein-enriched subcellular fraction), read-out: t1/2, CES1c (converted)): 31 min
Structure (SMILES): CCOC(=O)C1=C[C@@H](OC(CC)CC)[C@H](NC(C)=O)[C@@H](N)C1 [Oseltamivir]

Structure (SMILES): CCN(CC)CCOC(=O)c1ccc(N)cc1 [Procaine]
Activity for amidate ester cleavage, CES2 ([3]; 1 μM substrate): 4.4 ± 0.8 × 10^−3 nmol/min/mg | half-life at 1 μM ([3]; human, CES2 Supersomes (protein-enriched subcellular fraction), pH 7.4, 1 μM substrate, read-out: t1/2, CES2 (converted)): 110 min

Structure (SMILES): C[C@H](N[P@@](=O)(O)OC[C@H]1O[C@@](C#N)(c2ccc3c(N)ncnn23)[C@H](O)[C@@H]1O)C(=O)O [RDV MetX]
HINT1 hydrolysis ([4]; 1 μM substrate, 250 nM HINT1, pH 7.2, 37°C): 32 ± 12 nmol/min/mg | half-life at 1 μM ([4]; human, recombinant HINT1, 1 μM substrate, 250 nM HINT1, pH 7.2, 37°C, read-out: t1/2, HINT1 hydrolysis (converted)): 5.5 min | HINT1 metabolism rate relative to GS-6620 MetX ([4]; times faster than known substrate GS-6620 MetX): 6 times | Lysosomal hydrolysis at pH 4.5 [5, 7]: 0 ± 0 nmol/min | P-N bond cleavage under acidic pH ([5]; acidic pH mimicking intracellular lysosomal conditions): no RDV MetX hydrolysis product was detectable; also recorded: completely resistant to acid hydrolysis | half-life at 1 μM ([5]; buffer, pH 4.5): > 167 h

Structure (SMILES): CC(C)OC(=O)[C@H](C)N[P@](=O)(CO[C@H](C)Cn1cnc2c(N)ncnc21)Oc1ccccc1 [TAF (GS-7340), tenofovir alafenamide fumarate]
Activity for amidate ester cleavage, CatA ([6]; 1 μM substrate, 5 nM CatA, pH 6.5, 37°C): 254 ± 154 nmol/min/mg | half-life at 1 μM ([6]; human, pH 6.5): 13 min

Structure (SMILES): CC(Cn1cnc2c(N)ncnc21)OCP(=O)(O)NC(C)C(=O)O (stereo not shown) [TAF MetX]
Lysosomal hydrolysis at pH 4.5 [5, 7]: 1.2 ± 0.6 × 10^−3 nmol/min | t1/2, lysosomal hydrolysis at pH 4.5 [5, 7]: 16 ± 7 min
